{
  "source": "paper PMC8427641",
  "about": "(ACS Omega, 2021)",
  "data": [
    {"target": "T1, α-amylase (Homo sapiens, UniProt P04746)", "T1 sequence (P04746 16-511)": "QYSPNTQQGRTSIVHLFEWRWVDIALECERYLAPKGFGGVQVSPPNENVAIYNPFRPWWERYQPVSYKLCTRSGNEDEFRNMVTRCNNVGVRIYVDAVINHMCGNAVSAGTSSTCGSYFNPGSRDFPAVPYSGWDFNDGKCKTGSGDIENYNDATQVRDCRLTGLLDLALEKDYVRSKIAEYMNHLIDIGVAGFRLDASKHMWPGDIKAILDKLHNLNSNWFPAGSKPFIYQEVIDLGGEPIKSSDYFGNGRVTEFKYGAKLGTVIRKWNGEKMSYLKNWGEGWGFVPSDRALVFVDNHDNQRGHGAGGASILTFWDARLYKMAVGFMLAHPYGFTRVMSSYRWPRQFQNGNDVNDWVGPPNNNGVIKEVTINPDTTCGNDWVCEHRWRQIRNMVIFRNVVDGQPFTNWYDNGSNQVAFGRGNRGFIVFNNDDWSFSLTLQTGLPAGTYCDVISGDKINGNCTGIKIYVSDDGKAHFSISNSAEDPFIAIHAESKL", "assay": "α-Amylase inhibition assay", "format": "biochemical", "units": {"IC50": "nM"}, "values": [
      {"compound": "COc1cc(-c2nc3cc(Cl)ccc3[nH]2)ccc1OCc1ccccc1", "note": "[Compound 24, 5-Chloro-2-(4^′-(benzyloxy)-3^′-methoxyphenyl)-1H-benzo[d]imidazole]", "IC50": "2160 ± 20"},
      {"compound": "Clc1ccc2[nH]c(-c3cccc(OCc4ccccc4)c3)nc2c1", "note": "[Compound 29, 5-Chloro-2-(3^′-(benzyloxy)phenyl)-1H-benzo[d]imidazole]", "IC50": "2470 ± 110"},
      {"compound": "Cc1cc2nc(-c3ccc(OCc4ccccc4)cc3)[nH]c2cc1C", "note": "[Compound 30, 5,6-Dimethyl-2-(4^′-(benzyloxy)phenyl)-1H-benzo[d]imidazole]", "IC50": "2160 ± 70"},
      {"compound": "Fc1ccc2[nH]c(-c3ccc(OCc4ccccc4)cc3)nc2c1", "note": "[Compound 31, 5-Fluoro-2-(4^′-(benzyloxy)phenyl)-1H-benzo[d]imidazole]", "IC50": "2150 ± 60"}
    ]}
  ]
}
